Where a name gives a salt, the structure may show the parent alone.
Tests used:
[1] = Photosensitizing oxidation reaction using Dansyl methionine; settings: for Degree of Photo Reaction (reaction end time): 0.1 μM photosensitizer, 10 μM Dansyl methionine in chloroform, halogen lamp irradiation, time until Dansyl methionine disappeared on TLC, smaller = stronger
Experimental: (§1) Albumin test is a test method for evaluating the affinity to cancerous tissues, in which a chlorin derivative is examined on the change in ultraviolet (UV) absorption spectrum in a mixture form with albumine, and dancyl methionine test is also a convenient test method for evaluating the strength of the photoreactivity by thin layer chromatography (TLC) or high performance liquid chromatography (HPLC) (see Japanese Patent Application Laid-open No. 5-97857).
To 1 ml of chloroform, 10 μM of Dansyl methionine, a substrate, was added, and then 0.1 μM of the photosensitizer of the present invention [sodium salt of NOEt-P-Asp(I)] was further added. Laser irradiation was conducted using Cold Spot PICL-SX (Nippon P.I. Co., Ltd.) which is halogen lamp, has 150 W wave length and 80,00 Lux, under stirring. The reaction solution was spotted at every minute on TLC plate (Kieselgel 60F254), and developed with chloroform methanol (3:2), then Dansyl methionine and its oxide (Dansylmethionine sulfoxide) were confirmed using UV lamp (254 nm). The time that Dansylmethionine disappeared completely on TLC plate was stated as the end of the reaction time, and photo oxidation reaction of photosensitizer was compared.
Photofrin II (Trade Mark) was used as a control of photosensitizer of present invention.

[2] = test system: tumor tissues of colon cancer Colon 26; experiment: Evaluation on tissue accumulability (cancer/organ concentration by surface fluorescence); type: in vivo; settings: 10 mg/kg intravenous, 3H/He mice bearing Colon 26, 1 to 24 hours after administration, FIG. 2
Experimental: In the graph, the curve No.1 represents the result of cancer/brain, the curve No.2 represents the result of cancer/liver, the curve No.3 represents the result of cancer/lung, the curve No.4 represents cancer/muscle, the curve No.5 represents cancer/kidney, and the curve No.6 represents cancer/plasma.
3H/He mice (5 per group) implanted with tumor tissues of colon cancer Colon 26 for 14 to 21 days, were given an intravenous injection of sodium salt of each of NOEt-P-Asp(I) (10 mg/kg for each mouse) which had been diluted with a distilled water for injection. The blood samples were collected and the organs bearing the tumor tissue were extirpated after the injection, irradiated with N2-pulsed laser (N2, wavelength: 337 nm, 2 ns, 400-1,000 nm), and the excited fluorescent spectrum was measured. The wavelength in the range of 600 to 900 nm was examined based on the peak wavelength of NADH at 470 nm (determination of the distribution of the test compound in the organ by the surface fluorescence method using N2-pulsed laser spectrophotometry). That is, the distributed concentration of sodium salt of NOEt-P-Asp(I) in cancer/organ (or plasma) ratio was determined by calculating the peak wavelength at 670 nm when the peak wavelength at 470 nm was considered as the basic value, 1.

[3] = target: albumin (Homo sapiens, UniProt P02768); experiment: Albumin test (change in UV absorption spectrum in mixture with albumin); type: binding
Chain of albumin (P02768 25-609, species assumed): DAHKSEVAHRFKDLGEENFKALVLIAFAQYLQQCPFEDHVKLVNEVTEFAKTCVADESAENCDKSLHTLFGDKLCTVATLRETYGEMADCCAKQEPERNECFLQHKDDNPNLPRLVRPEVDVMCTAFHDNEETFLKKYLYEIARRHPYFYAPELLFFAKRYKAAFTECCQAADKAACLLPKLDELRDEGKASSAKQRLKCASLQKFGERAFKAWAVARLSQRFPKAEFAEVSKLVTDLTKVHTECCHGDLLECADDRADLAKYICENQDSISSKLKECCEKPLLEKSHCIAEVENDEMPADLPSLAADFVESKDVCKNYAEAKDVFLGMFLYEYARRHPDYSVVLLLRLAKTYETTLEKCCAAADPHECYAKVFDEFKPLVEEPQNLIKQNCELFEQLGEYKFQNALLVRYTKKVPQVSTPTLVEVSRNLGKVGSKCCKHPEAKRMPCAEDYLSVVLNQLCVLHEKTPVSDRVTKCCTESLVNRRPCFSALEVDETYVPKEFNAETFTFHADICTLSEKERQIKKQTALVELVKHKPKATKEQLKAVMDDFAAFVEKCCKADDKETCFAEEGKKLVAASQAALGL
Description: as §1

Compound | Degree of Photo Reaction (reaction end time) [1] [min] | accumulability to cancerous tissues (cancer/organ or plasma concentration ratio) [2] | transferability to cancerous tissues (affinity to cancerous tissues) [3] | photosensitivity (strength of photoreactivity) ([1]; dancyl methionine test, result in words)
13,17-bis[(1,2-dicarboxyethyl)carbamoylethyl]-8-ethenyl-2-hydroxy-3-etoxyiminoethylidene-2,17,12,18-tetramethyl-porphyrin [NOEt-P-Asp(II) Na salt] | 4 | – | – | –
C=Cc1c(C)c2cc3nc(cc4[nH]c(cc5nc(cc1[nH]2)C(C)(O)C5=CC=NOCC)c(C)c4CCC(=O)NC(CC(=O)O)C(=O)O)C(CCC(=O)NC(CC(=O)O)C(=O)O)=C3C (centres unmarked) [NOEt-P-Asp(I) Na salt, 13,17-bis[(1,2-dicarboxylethyl)carbamoylethyl]-3-ethenyl-7-hydroxy-8-ethoxyiminoethylidene-2,7,12,18-tetramethyl-porphyrin] | 4 | much higher accumulability to cancerous tissues | – | –
C=Cc1c(C)c2cc3nc(cc4[nH]c(cc5nc(cc1[nH]2)C(C)(O)C5=CC=NOCC)c(C)c4CCC(=O)NC(CC(=O)O)C(=O)O)C(CCC(=O)NC(CC(=O)O)C(=O)O)=C3C (centres unmarked) [NOEt-P-Asp(I), 13,17-bis[(1,2-dicarboxylethyl)carbamoylethyl]-3-ethenyl-7-hydroxy-8-ethoxyiminoethylidene-2,7,12,18-tetramethyl-porphyrin] | – | – | excellent transferability to cancerous tissues | strong photosensitivity

Source: patent US6746663B2, “Porphyrin compounds” (Photochemical Co., Ltd., priority 1999, dated 2004)
